Assay results from US4098823A, “Monospiroalkyl derivatives of prostaglandins” (Miles Laboratories, Inc., priority 1977, dated 1978).

What was measured:
Assay type in all cases: cell-based
rat stomach fundus = experiment: Cascade Assay, stomach (smooth muscle stimulant effect); details: superfused, 50% of maximum (PGE1)
How it was run: (§1)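 Rabbit aortic strip (4 g tension), rat stomach fundus, rat colon and chick rectum (1 g) in cascade, superfused at 10 ml/min with 37° C Krebs containing cholinergic, adrenergic, serotonin and histamine blockers. Doses of 0.001–100,000 ng dripped on at 10–20 min intervals; maximal tension rise gave graphical ED50 per tissue.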

rat colon = experiment: Cascade Assay, colon (smooth muscle stimulant effect); details: superfused, 50% of maximum (PGF2α)
How it was run: as §1

chick rectum = experiment: Cascade Assay, rectum (smooth muscle stimulant effect); details: superfused, 50% of maximum (PGE1)
How it was run: as §1

rabbit aortic strip = experiment: Cascade Assay, aorta (smooth muscle stimulant effect); details: superfused, 50% of maximum (PGA2)
How it was run: as §1

Rat Uterus = experiment: Effects on the Rat Uterus in Vitro; details: Rattus norvegicus; in vitro, 29° C; response 50% that of carbachol; read-out: Test F Rat Uterus, Activity Value (ED50)
How it was run: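 Uterine segments came from rats (140–160 g) given 1 mg/kg diethylstilbestrol s.c. 18 h earlier. Tissue was held isometrically at 1 g tension in de Jalon solution at 29 °C, gassed with 95% O2/5% CO2. Compound was tested at 0.001–10 mcg/ml in log steps, every 10 min with washes, and ED50 was derived graphically as 50% of the second carbachol (1 mcg/ml) response.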

COC(=O)CCCCCC[C@H]1C(=O)C[C@@H](O)[C@@H]1/C=C/[C@H](O)C1CC2(CCC2)C1 [TR-4120, Methyl 7-{3R-hydroxy-5-oxo-2R-[3R-hydroxy-3-(spiro[3.3]hept-2-yl)-1E-propenyl]cyclopent-1R-yl}heptanoate]
Test E Cascade Assay, Stomach, Activity Value (ED50) (rat stomach fundus): 0 (>10000) | Test E Cascade Assay, Colon, Activity Value (ED50) (rat colon): 0 (>10000) | Test E Cascade Assay, Rectum, Activity Value (ED50) (chick rectum): 1 (1001 - 10000) | Test E Cascade Assay, Aorta, Activity Value (ED50) (rabbit aortic strip): 0 (>10000) | EC50 (Rat Uterus): > 10 µg/mL
